Assay results as given in PubChem BioAssay (NCI).
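These data come from cells grown in 96-well plates and exposed to compound for 48 hours at five concentrations. GI50 marks 50% less growth. At the TGI there is no net growth.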

Legend:
Experiment in all cases: NCI-60 cell line screen, 48 h
MDA-MB-468 breast = test system: MDA-MB-468 breast
HCT-116 colon = test system: HCT-116 colon
SK-MEL-28 melanoma = test system: SK-MEL-28 melanoma
OVCAR-5 ovarian = test system: OVCAR-5 ovarian
EKVX NSCLC = test system: EKVX NSCLC
SF-295 CNS = test system: SF-295 CNS
CCRF-CEM leukemia = test system: CCRF-CEM leukemia
LOX IMVI melanoma = test system: LOX IMVI melanoma
MDA-MB-435 = test system: MDA-MB-435
MOLT-4 leukemia = test system: MOLT-4 leukemia
BT-549 breast = test system: BT-549 breast
SF-539 CNS = test system: SF-539 CNS
SNB-75 CNS = test system: SNB-75 CNS
RXF 393 renal = test system: RXF 393 renal
SN12C renal = test system: SN12C renal
OVCAR-3 ovarian = test system: OVCAR-3 ovarian
OVCAR-4 ovarian = test system: OVCAR-4 ovarian
UO-31 renal = test system: UO-31 renal
HS 578T breast = test system: HS 578T breast
NCI-H23 lung = test system: NCI-H23 lung
TK-10 renal = test system: TK-10 renal
HL-60(TB) leukemia = test system: HL-60(TB) leukemia
T-47D breast = test system: T-47D breast
SR leukemia = test system: SR leukemia
K-562 leukemia = test system: K-562 leukemia
MDA-MB-231 breast = test system: MDA-MB-231 breast
UACC-257 melanoma = test system: UACC-257 melanoma
KM12 colon = test system: KM12 colon
786-0 renal = test system: 786-0 renal
SW-620 colon = test system: SW-620 colon
A549 NSCLC = test system: A549 NSCLC
PC-3 prostate = test system: PC-3 prostate
HT29 colon = test system: HT29 colon
NCI-H522 lung = test system: NCI-H522 lung
SK-MEL-5 melanoma = test system: SK-MEL-5 melanoma
MCF7 breast = test system: MCF7 breast
NCI-H460 lung = test system: NCI-H460 lung
SK-OV-3 ovarian = test system: SK-OV-3 ovarian
HCT-15 colon = test system: HCT-15 colon
COLO 205 colon = test system: COLO 205 colon
DU-145 prostate = test system: DU-145 prostate
OVCAR-8 ovarian = test system: OVCAR-8 ovarian
MALME-3M melanoma = test system: MALME-3M melanoma
A498 renal = test system: A498 renal
SNB-19 CNS = test system: SNB-19 CNS
HOP-62 NSCLC = test system: HOP-62 NSCLC
IGROV1 ovarian = test system: IGROV1 ovarian
M14 melanoma = test system: M14 melanoma
SK-MEL-2 melanoma = test system: SK-MEL-2 melanoma
HCC-2998 colon = test system: HCC-2998 colon
SF-268 CNS = test system: SF-268 CNS
RPMI-8226 leukemia = test system: RPMI-8226 leukemia
U251 CNS = test system: U251 CNS
CAKI-1 renal = test system: CAKI-1 renal

Structure (SMILES): COC[C@@H](CC(C)C)N=C1N/C(=C\c2ccc3ncsc3c2)C(=O)N1C
- GI50 (MDA-MB-468 breast): 0.999 µM
- TGI (MDA-MB-468 breast): 6.09 µM
- GI50 (HCT-116 colon): 1.22 µM
- TGI (HCT-116 colon): > 100 µM
- GI50 (SK-MEL-28 melanoma): 2.93 µM
- TGI (SK-MEL-28 melanoma): 8.72 µM
- GI50 (OVCAR-5 ovarian): 4.15 µM
- TGI (OVCAR-5 ovarian): > 100 µM
- GI50 (EKVX NSCLC): 3.06 µM
- TGI (EKVX NSCLC): > 100 µM
- GI50 (SF-295 CNS): 3.25 µM
- TGI (SF-295 CNS): > 100 µM
- GI50 (CCRF-CEM leukemia): 2.55 µM
- TGI (CCRF-CEM leukemia): 18.6 µM
- GI50 (LOX IMVI melanoma): 2.34 µM
- TGI (LOX IMVI melanoma): > 100 µM
- GI50 (MDA-MB-435): 3.72 µM
- TGI (MDA-MB-435): > 100 µM
- GI50 (MOLT-4 leukemia): 2.8 µM
- TGI (MOLT-4 leukemia): > 100 µM
- GI50 (BT-549 breast): 2.01 µM
- TGI (BT-549 breast): 9.51 µM
- GI50 (SF-539 CNS): 0.958 µM
- TGI (SF-539 CNS): 7.12 µM
- GI50 (SNB-75 CNS): 0.0476 µM
- TGI (SNB-75 CNS): 4.84 µM
- GI50 (RXF 393 renal): 2.18 µM
- TGI (RXF 393 renal): 6.85 µM
- GI50 (SN12C renal): 3 µM
- TGI (SN12C renal): > 100 µM
- GI50 (OVCAR-3 ovarian): 1.23 µM
- TGI (OVCAR-3 ovarian): 5.31 µM
- GI50 (OVCAR-4 ovarian): 4.29 µM
- TGI (OVCAR-4 ovarian): > 100 µM
- GI50 (UO-31 renal): 1.87 µM
- TGI (UO-31 renal): 7.21 µM
- GI50 (HS 578T breast): 2.03 µM
- TGI (HS 578T breast): 9.14 µM
- GI50 (NCI-H23 lung): 2.02 µM
- TGI (NCI-H23 lung): 14.2 µM
- GI50 (TK-10 renal): 3.8 µM
- TGI (TK-10 renal): > 100 µM
- GI50 (HL-60(TB) leukemia): 2.55 µM
- TGI (HL-60(TB) leukemia): 8.29 µM
- GI50 (T-47D breast): 2.01 µM
- TGI (T-47D breast): > 100 µM
- GI50 (SR leukemia): 2.17 µM
- TGI (SR leukemia): 24.9 µM
- GI50 (K-562 leukemia): 1.76 µM
- TGI (K-562 leukemia): > 100 µM
- GI50 (MDA-MB-231 breast): 3.9 µM
- TGI (MDA-MB-231 breast): > 100 µM
- GI50 (UACC-257 melanoma): 2.81 µM
- TGI (UACC-257 melanoma): > 100 µM
- GI50 (KM12 colon): 2.36 µM
- TGI (KM12 colon): > 100 µM
- GI50 (786-0 renal): 3.48 µM
- TGI (786-0 renal): > 100 µM
- GI50 (SW-620 colon): 1.54 µM
- TGI (SW-620 colon): > 100 µM
- GI50 (A549 NSCLC): 2.05 µM
- TGI (A549 NSCLC): > 100 µM
- GI50 (PC-3 prostate): 4.24 µM
- TGI (PC-3 prostate): > 100 µM
- GI50 (HT29 colon): 3.27 µM
- TGI (HT29 colon): 16.2 µM
- GI50 (NCI-H522 lung): 1.34 µM
- TGI (NCI-H522 lung): 6.03 µM
- GI50 (SK-MEL-5 melanoma): 1.77 µM
- TGI (SK-MEL-5 melanoma): 4.62 µM
- GI50 (MCF7 breast): 2.57 µM
- TGI (MCF7 breast): 22.2 µM
- GI50 (NCI-H460 lung): 2.61 µM
- TGI (NCI-H460 lung): > 100 µM
- GI50 (SK-OV-3 ovarian): 1.96 µM
- TGI (SK-OV-3 ovarian): 9.82 µM
- GI50 (HCT-15 colon): 2.01 µM
- TGI (HCT-15 colon): > 100 µM
- GI50 (COLO 205 colon): 1.97 µM
- TGI (COLO 205 colon): 7.26 µM
- GI50 (DU-145 prostate): 3.22 µM
- TGI (DU-145 prostate): > 100 µM
- GI50 (OVCAR-8 ovarian): 2.65 µM
- TGI (OVCAR-8 ovarian): > 100 µM
- GI50 (MALME-3M melanoma): 2.36 µM
- TGI (MALME-3M melanoma): 8.53 µM
- GI50 (A498 renal): 1.2 µM
- TGI (A498 renal): 4.97 µM
- GI50 (SNB-19 CNS): 0.999 µM
- TGI (SNB-19 CNS): > 100 µM
- GI50 (HOP-62 NSCLC): 2.23 µM
- TGI (HOP-62 NSCLC): 8.86 µM
- GI50 (IGROV1 ovarian): 2.26 µM
- TGI (IGROV1 ovarian): > 100 µM
- GI50 (M14 melanoma): 4.11 µM
- TGI (M14 melanoma): > 100 µM
- GI50 (SK-MEL-2 melanoma): 1.53 µM
- TGI (SK-MEL-2 melanoma): 3.77 µM
- GI50 (HCC-2998 colon): 2.67 µM
- TGI (HCC-2998 colon): 18.6 µM
- GI50 (SF-268 CNS): 2.85 µM
- TGI (SF-268 CNS): > 100 µM
- GI50 (RPMI-8226 leukemia): 2.7 µM
- TGI (RPMI-8226 leukemia): 12.3 µM
- GI50 (U251 CNS): 2.35 µM
- TGI (U251 CNS): > 100 µM
- GI50 (CAKI-1 renal): 1.73 µM
- TGI (CAKI-1 renal): > 100 µM
